Source: patent publication US6960573B2, “Vitamin D3 derivative and treating agent for inflammatory respiratory disease using same” (Teijin Limited, priority 1998, dated 2005)

Tested on: hamster LPS-induced pneumonia model
Experiment: Neutrophilic infiltration suppressing effect, hamster LPS-induced pneumonia model
Format: in vivo, golden hamster
Details: Mesocricetus auratus, Neutrophil, inhaled or nasal; dose 4 μg/kg, administered infratracheally just after LPS inhalation; neutrophils in washing after 24 hr; read-out: % Suppression (number of neutrophils, based on the control)
Method: A male golden hamster was placed in an inhalation chamber (volume: 12 liter) and allowed to inhale LPS (nebulizer filled concentration: 2.0 mg/ml) generated by an ultrasonic nebulizer for 30 min to cause pneumonia. Just after the inhalation of the LPS, a treating agent of the present invention was administered infratracheally at a dosage of 1 to 20 μg/kg under halothane anesthesia. After 24 hr, tracheal branches and pulmonary alveoli were washed, and the number of neutrophils in the washing was determined. Using the number of neutrophils obtained in the absence of the treating agent of the present invention as the control, the decreasing rates of the numbers of neutrophils were expressed in terms of percent suppression based on the control.

SMILES | inhibition in vivo at 0.004 mg/kg [%]
C=C1/C(=C\C=C2/CCC[C@@]3(C)C2CC[C@@H]3[C@H](C)CC2CC(C)(C)C(=O)O2)C[C@@H](O)C[C@@H]1O (some centres unmarked) [2102a] | > 40
C=C1/C(=C\C=C2/CCC[C@@]3(C)C2CC[C@@H]3[C@H](C)CC2CC3(CC3)C(=O)O2)C[C@@H](O)C[C@@H]1O (some centres unmarked) [2105a] | > 40
C=C1/C(=C\C=C2/CCC[C@@]3(C)C2CC[C@@H]3[C@H](C)/C=C2\CCC(C)(F)C2=O)C[C@@H](O)C[C@@H]1O (some centres unmarked) [3105d] | > 40
C=C1/C(=C\C=C2/CCC[C@@]3(C)C2CC[C@@H]3[C@H](C)CC2CCC(=O)C2)C[C@@H](O)C[C@@H]1O (some centres unmarked) [4101a] | 20 to 40
C=C1/C(=C\C=C2/CCC[C@@]3(C)C2CC[C@@H]3C(C)/C=C2\CCC(=O)C2(C)O)C[C@@H](O)C[C@@H]1O (some centres unmarked) [4203b] | 20 to 40
C=C1/C(=C\C=C2/CCC[C@@]3(C)C2CC[C@@H]3[C@H](C)C[C@H]2C=C(C)C(=O)O2)C[C@@H](O)C[C@@H]1O (some centres unmarked) [Compound No. 1107b] | < 20
C=C1/C(=C\C=C2/CCC[C@@]3(C)C2CC[C@@H]3[C@H](C)/C=C2\CCN(C)C2=O)C[C@@H](O)C[C@@H]1O (some centres unmarked) [Compound No. 3405] | > 40

Same assay, conditions: Mesocricetus auratus, Neutrophil, inhaled or nasal; dose 20 μg/kg, administered infratracheally just after LPS inhalation; neutrophils in washing after 24 hr; read-out: % Suppression (number of neutrophils, based on the control)

SMILES | inhibition in vivo at 0.02 mg/kg [%]
C=C1/C(=C\C=C2/CCC[C@@]3(C)C2CC[C@@H]3[C@H](C)CC2=CC(=O)CC2)C[C@@H](O)C[C@@H]1O (some centres unmarked) [Compound No. 4301] | < 20
C=C1/C(=C\C=C2/CCC[C@@]3(C)C2CC[C@@H]3[C@H](C)CCC[C@@](C)(O)C(=O)N(C)C)C[C@@H](O)C[C@@H]1O (some centres unmarked) [Compound No. 5102] | > 40
C=C1/C(=C\C=C2/CCC[C@@]3(C)C2CC[C@@H]3[C@H](C)CCC[C@@](C)(O)C(=O)N2CCCCC2)C[C@@H](O)C[C@@H]1O (some centres unmarked) [Compound No. 5106] | 20 to 40
C=C1/C(=C\C=C2/CCC[C@@]3(C)C2CC[C@@H]3[C@H](C)CCC[C@@](C)(O)C(C)=O)C[C@@H](O)C[C@@H]1O (some centres unmarked) [Compound No. 5107] | > 40
C=C1/C(=C\C=C2/CCC[C@@]3(C)C2CC[C@@H]3[C@H](C)CCC[C@@](C)(O)C(C)(C)O)C[C@@H](O)C[C@@H]1O (some centres unmarked) [compound 5109] | 20 to 40

Tested on: not listed separately
Experiment: Blood calcium level-elevation effect, oral administration to rats
Format: in vivo
Details: ratio to 1α,25-dihydroxyvitamin D3
Excerpt: For example, the blood calcium level-elevation effects of compounds of the present invention in oral administration to rats, which are compared with that of 1 α,25-dihydroxyvitamin D3, are as shown below: • Compound No. 3105c, 1/>100 • Compound No.3405, 1/>100 • Compound No. 5102, 1/259 • Compound No. 5107, 1/11.

blood calcium level-elevation effect compared with that of 1α,25-dihydroxyvitamin D3 | SMILES
1/259 | C=C1/C(=C\C=C2/CCC[C@@]3(C)C2CC[C@@H]3[C@H](C)CCC[C@@](C)(O)C(=O)N(C)C)C[C@@H](O)C[C@@H]1O (some centres unmarked) [Compound No. 5102]
1/11 | C=C1/C(=C\C=C2/CCC[C@@]3(C)C2CC[C@@H]3[C@H](C)CCC[C@@](C)(O)C(C)=O)C[C@@H](O)C[C@@H]1O (some centres unmarked) [Compound No. 5107]
